Results from ChEMBL document CHEMBL6071148, “Synthesis and biological evaluation of novel 3,6- amide and thioamide substituted- 2,3,4,9-tetrahydro-1H-carbazoles for anti-cancer activity” (Eur J Med Chem, 2024).
The source made the active and inactive calls. The calls are words filed in the database; no cut-off is given here.

Key:
[1] = test system: Mitochondrial membrane; experiment: Disruption of mitochondrial membrane integrity in human MCF7 cells assessed as presence of large mitochondria by TEM analysis; assay type: cell membranes
[2] = test system: MCF7; experiment: Induction of apoptosis in human MCF7 cells assessed as increase in apoptotic cells incubated for 48 hrs by Annexin-V and 7-AAD staining based flow cytometric analysis (reference value: 7.53 +/- 1.16%); assay type: functional
[3] = test system: Mitochondrial membrane; experiment: Disruption of mitochondrial membrane integrity in human MCF7 cells assessed as disruption of normal mitochondrial distribution by TEM analysis; assay type: cell membranes
[4] = test system: A549; experiment: Induction of cell cycle arrest in human A549 cells assessed as accumulation of cells at S phase at IC50 incubated for 48 hrs by PI staining based flow cytometric analysis (reference value: 17.825 +/- 3.70%); assay type: functional
[5] = test system: A549; experiment: Antitumor activity against human A549 cells xenografted in chicken embryo chorioallantoic membrane assessed as necrosis at 1.5 to 4.5 uM by H and E staining based analysis; assay type: functional, cell-based; settings: dose 1.5-4.5 µM
[6] = test system: A549; experiment: Induction of cell cycle arrest in human A549 cells assessed as accumulation of cells at G1 phase at IC50 incubated for 24 hrs by PI staining based flow cytometric analysis (reference value: 37.40 +/- 2.40%); assay type: functional
[7] = test system: MCF7; experiment: Induction of DNA damage in human MCF7 cells assessed as gammaH2AX positive cells at IC50 incubated for 48 hrs by PI staining based flow cytometric analysis (reference value: 7.58 +/- 1.23%); assay type: functional
[8] = test system: A549; experiment: Induction of DNA damage in human A549 cells assessed as gammaH2AX positive cells at IC50 incubated for 48 hrs by PI staining based flow cytometric analysis (reference value: 4.90 +/- 0.50%); assay type: functional
[9] = test system: Mitochondrial membrane; experiment: Induction of mitochondrial membrane depolarization in human MCF7 cells assessed as increase in mitochondrial fission by measuring appearance of spherical mitochondria by confocal microscopic analysis; assay type: cell membranes
[10] = test system: A549; experiment: Induction of apoptosis in human A549 cells assessed as apoptotic rate at IC50 incubated for 24 hrs by Annexin-V and 7-AAD staining based flow cytometric analysis (reference value: 4.56 +/- 0.81%); assay type: functional
[11] = test system: Mitochondrial membrane; experiment: Disruption of mitochondrial membrane potential in human A549 cells assessed as translocation of cytochrome c to cytoplasm at IC50 incubated for 48 hrs by confocal microscopic analysis; assay type: cell membranes
[12] = test system: MCF7; experiment: Cytotoxicity against human MCF7 cells assessed as inhibition of cell proliferation incubated for 72 hrs by MTT assay; assay type: functional, cell-based; settings: MCF7, 72 h
[13] = test system: MCF7; experiment: Induction of cell cycle arrest in human MCF7 cells assessed as accumulation of cells at S phase at IC50 incubated for 24 hrs by PI staining based flow cytometric analysis relative to control; assay type: functional
[14] = test system: A549; experiment: Induction of cell cycle arrest in human A549 cells assessed as accumulation of cells at S phase at IC50 incubated for 24 hrs by PI staining based flow cytometric analysis (reference value: 39.41 +/- 2.54%); assay type: functional
[15] = test system: MCF7; experiment: Induction of cell cycle arrest in human MCF7 cells assessed as accumulation of cells at G1 phase at IC50 incubated for 24 hrs by PI staining based flow cytometric analysis relative to control; assay type: functional
[16] = test system: MCF7; experiment: Inhibition of colony formation in human MCF7 cells assessed as reduction in clonogenic capacity incubated for 24 hrs by crystal violet staining based analysis; assay type: functional, cell-based
[17] = test system: Mitochondrial membrane; experiment: Disruption of mitochondrial membrane integrity in human A549 cells assessed as change in mitochondrial size by TEM analysis; assay type: cell membranes
[18] = test system: MCF7; experiment: Induction of cell cycle arrest in human MCF7 cells assessed as accumulation of cells at S phase at IC50 incubated for 48 hrs by PI staining based flow cytometric analysis; assay type: functional
[19] = test system: MCF7; experiment: Antitumor activity against human MCF7 cells xenografted in chicken embryo chorioallantoic membrane assessed as change in nuclear morphology at 1.5 to 4.5 uM by H and E staining based analysis; assay type: functional, cell-based; settings: dose 1.5-4.5 µM
[20] = test system: MCF7; experiment: Antitumor activity against human MCF7 cells xenografted in chicken embryo chorioallantoic membrane assessed as necrosis at 1.5 to 4.5 uM by H and E staining based analysis; assay type: functional, cell-based; settings: dose 1.5-4.5 µM
[21] = test system: Mitochondrial membrane; experiment: Disruption of mitochondrial membrane integrity in human A549 cells assessed as absence of well-developed cristae by TEM analysis; assay type: cell membranes
[22] = test system: Mitochondrial membrane; experiment: Disruption of mitochondrial membrane integrity in human A549 cells assessed as organization of mtDNA nucleoids within cells by TEM analysis; assay type: cell membranes
[23] = test system: A549; experiment: Inhibition of colony formation in human A549 cells assessed as reduction in clonogenic capacity incubated for 24 hrs by crystal violet staining based analysis; assay type: functional, cell-based
[24] = test system: Chorioallantoic membrane; experiment: Anti-angiogenesis activity in chicken embryo chorioallantoic membrane assessed as reduction in blood vessel formation by imaging analysis; assay type: functional, tissue-based; settings: Gallus gallus, TDE = time-dependent effect
[25] = test system: Mitochondrial membrane; experiment: Disruption of mitochondrial membrane integrity in human A549 cells assessed as presence of large mitochondria by TEM analysis; assay type: cell membranes
[26] = test system: MCF7; experiment: Induction of cell cycle arrest in human MCF7 cells assessed as accumulation of cells at G2 phase at IC50 incubated for 24 hrs by PI staining based flow cytometric analysis relative to control; assay type: functional
[27] = test system: Mitochondrial membrane; experiment: Disruption of mitochondrial membrane potential in human MCF7 cells assessed as translocation of cytochrome c to cytoplasm at IC50 incubated for 48 hrs by confocal microscopic analysis; assay type: cell membranes
[28] = test system: A549; experiment: Induction of apoptosis in human A549 cells assessed as apoptotic rate at IC50 incubated for 48 hrs by Annexin-V and 7-AAD staining based flow cytometric analysis (reference value: 6.56 +/- 1.17%); assay type: functional
[29] = test system: MCF7; experiment: Antitumor activity against human MCF7 cells xenografted in chicken embryo chorioallantoic membrane assessed as reduction in tumor size; assay type: functional, cell-based; settings: dose 1.5-4.5 µM
[30] = test system: Mitochondrial membrane; experiment: Induction of mitochondrial membrane depolarization in human A549 cells assessed as increase in mitochondrial fission by measuring appearance of circular mitochondria by confocal microscopic analysis; assay type: cell membranes
[31] = test system: Mitochondrial membrane; experiment: Disruption of mitochondrial membrane integrity in human MCF7 cells assessed as presence of bloated mitochondria by TEM analysis; assay type: cell membranes
[32] = test system: Mitochondrial membrane; experiment: Disruption of mitochondrial membrane integrity in human A549 cells assessed as presence of bloated mitochondria by TEM analysis; assay type: cell membranes
[33] = test system: Mitochondrial membrane; experiment: Disruption of mitochondrial membrane integrity in human A549 cells assessed as change in mitochondrial internal organization by TEM analysis; assay type: cell membranes
[34] = test system: Mitochondrial membrane; experiment: Disruption of mitochondrial membrane integrity in human MCF7 cells assessed as change in mitochondrial shape by TEM analysis; assay type: cell membranes
[35] = test system: Mitochondrial membrane; experiment: Induction of mitochondrial membrane depolarization in human A549 cells assessed as increase in mitochondrial fission by measuring appearance of shortened mitochondria by confocal microscopic analysis; assay type: cell membranes
[36] = test system: A549; experiment: Induction of cell cycle arrest in human A549 cells assessed as accumulation of cells at G1 phase at IC50 incubated for 48 hrs by PI staining based flow cytometric analysis (reference value: 53.5 +/- 4.01%); assay type: functional
[37] = test system: Mitochondrial membrane; experiment: Induction of mitochondrial membrane depolarization in human MCF7 cells assessed as increase in mitochondrial fission by measuring appearance of circular mitochondria by confocal microscopic analysis; assay type: cell membranes
[38] = test system: Mitochondrial membrane; experiment: Induction of mitochondrial membrane depolarization in human MCF7 cells assessed as increase in mitochondrial fission by measuring appearance of shortened mitochondria by confocal microscopic analysis; assay type: cell membranes
[39] = test system: Mitochondrial membrane; experiment: Disruption of mitochondrial membrane integrity in human MCF7 cells assessed as mitochondrial swelling by TEM analysis; assay type: cell membranes

- Activity [1]: Active
- Activity [3]: Active
- Activity [9]: Active
- Activity [11]: Active
- Activity [17]: Active
- Activity [21]: Active
- Activity [25]: Active
- Activity [27]: Active
- Activity [30]: Active
- Activity [31]: Active
- Activity [32]: Active
- Activity [33]: Active
- Activity [34]: Active
- Activity [35]: Active
- Activity [37]: Active
- Activity [38]: Active
- Activity [39]: Active
Structure (SMILES): CC(=S)NC1CCc2[nH]c3ccc(Br)cc3c2C1 (centres undefined)
- Activity [2]: 47.28%
- Activity [4]: 30.8%
- Activity [5]: Active
- Activity [6]: 31.6%
- Activity [7]: 16.78%
- Activity [8]: 11.98%
- Activity [10]: 20.75%
- IC50 [12]: 3.81 µM
- Activity [13]: 25.65%
- Activity [14]: 27.15%
- Activity [15]: 33.7%
- inhibition [16]: Dose-Dependent Effect
- Activity [18]: Active
- Activity [19]: Active
- Activity [20]: Active
- Activity [22]: Active
- inhibition [23]: Dose-Dependent Effect
- Activity [24]: Tde
- Activity [26]: 25.95%
- Activity [28]: 42.87%
- Activity [29]: Dose-Dependent Effect
- Activity [36]: 46.15%
